In patent US8748097B1, “Identification of agents for treating calcium disorders and uses thereof” (President and Fellows of Harvard College, priority 2011, dated 2014):
Like-named read-outs stand apart in the source and are kept apart here. Blank lines part the entries; values can stand above or below the molecule they belong to.

Columns and labels:
NFATc1 mRNA = assay: A23187-induced NFATc1 expression; assay type: cell-based; details: C2orf28 deficient cells vs control; 1 μM A23187, 12 hours
Experimental: FIG. 13. A23187-induced NFATc1 Expression. Control and C2orf28 deficient cells were treated for 12 hours with 1 μM A23187. After 12 hours, relative levels of NFATc1 mRNA expression were measured.
Total RNA was isolated and reverse-transcription was performed from cells grown in the indicated conditions. The resulting cDNA was diluted in DNase-free water (1:20) followed by quantification by real-time PCR. Data is expressed as the ratio between the expression of the target gene to the housekeeping gene, 18s. Each treated sample was normalized to the level of the vehicle controls of the same cell type. The following primers were used for quantitative real-time PCR: […]

[1] = system: alkaline phosphatase (ALPL); details: TBONE deficient cells vs GFP control; 10 nM Alendronate
Experimental: (§1) Briefly, GFP control and TBONE knockdown cells were generated and subjected to differentiation as described above. Following the two week incubation, cells were treated with 10 nM Alendronate (exemplary NBP) or vehicle and analyzed by real-time RT-PCR using TBONE, OC and BSP gene specific oligonucleotide primers (FIG. 15). Alkaline phosphatase activity was measured using a colorimetric based assay designed to indicate ALPL activity by changing color following the dephosphorylation of p-nitrophenyl phosphate (pNPP) (FIG. 16).

KBM7 cells = system: KBM7 cells
Experimental: (§2) All measurements were performed in quadruplicate.
as §2

MC3T3-e1 cells = system: MC3T3-e1 cells
Experimental: FIG. 15. Basal and NBP-potentiated osteoblastic gene expression. shNA-mediated TBONE knockdown (TBONE—1 and TBONE—2) and transfection control (GFP) cells were treated with 10 nM Alendronte or vehicle and analyzed using real-time RT-PCR for mRNA expression of (A) TBONE, (B) osteocalcin (OC), and (C) bone sialoprotein (BSP).
Since NBPs and calcium potentially play an important role in regulating osteoblast function, studies were performed to evaluate the role of TBONE in osteoblast differentiation. For the experiment, wild-type and GFP positive MC3T3-e1 cells were transiently transfected with small-hairpin RNA (shRNA). GFP positive cells were treated with a shRNA designed to target and disrupt GFP expression (transfection control), while wild-type cells were treated with one of two shRNA constructs (TBONE—1 and TBONE—2) designed to target and disrupt expression of Apr3. The cells were then subjected to conditions for promoting osteoblast differentiation, 50 μg/ml ascorbic acid and 10 mM B-glycerophosphate for 2 weeks, and analyzed for extracellular calcium deposition using Alizarin Red or phosphate deposition using the Von Kossa method.
as §1

RAW 264.7 macrophages [2] = system: RAW 264.7 macrophages
Experimental: (§3) GFP positive cells were treated with a shRNA designed to target and disrupt GFP expression (transfection control), while wild-type cells were treated with one of two shRNA constructs (TBONE—1 and TBONE—2) designed to target and disrupt expression of Apr3.

[3] = system: RANKL mRNA in ST-2 osteoblast cells
Experimental: as §3

Rapla prenylation = details: indicated dose of Alendronate, 72 hours
Experimental: (§4) FIG. 8. Effect of Nitrogenous Bisphosphonates on Prenylation. Cells containing (WT) or lacking C2orf28 (C2orf28_GT2) were treated with Alendronate at the indicated dose ((−) indicates no Alendronate). After 72 hours the cells were analyzed by immunoblotting for the indicated proteins.
(§5) Therefore, to determine whether C2orf28 is involved with NBPs mediated protein prenylation, the inventors' monitored the prenylation of several known prenylated proteins including the heat shock protein DnaJ (Hsp40) homolog, HDJ-2, and the Ras family GTPase, Rapla. Cells containing or lacking C2orf28 were treated with the indicated dose of Alendronate for 72 hours then lysed and analyzed by immunoblotting for the indicated proteins.
(§6) Cells were pelleted by centrifugation at 9,000 rpm for 30 seconds, rinsed once with ice-cold PBS and lysed with Triton-X 100 containing lysis buffer (40 mM HEPES [pH 7.4], 2 mM EDTA, 150 mM NaCl, 50 mM NaF, 1% Triton-X 100, and one tablet of EDTA-free protease inhibitors [Roche] per 25 ml). The soluble fractions of cell lysates were isolated by centrifugation at 13,000 rpm for 10 minutes in a microcentrifuge. Lysate protein concentrations were normalized by Bradford assay (Bio-Rad). Proteins were then denatured by the addition of sample buffer and by boiling for 5 minutes, resolved using 4%-20% SDS-PAGE (Invitrogen), and analyzed by immunoblotting.

HDJ-2 prenylation = details: indicated dose of Alendronate, 72 hours
Experimental: as §4, §5, §6

[4] = target: HA tagged C2orf28 variant 2 (Homo sapiens, UniProt Q6UW56); details: MC3T3-E1 pre-osteoblasts expressing HA tagged C2orf28 variant 2; 7504 fluorophore conjugated Alendronate
Experimental: Sub-cellular Localization. […] Cells were processed in an immunofluorescence assay.
Following incubation, the cells were washed, and processed in an immunofluorescence assay to detect HA and Alendronate, along with DAPI to visualize DNA content.
25,000-100,000 cells were plated on fibronectin-coated glass coverslips, fixed with 4% paraformaldehyde, and permeabilized with 0.2% Triton X-100. Permeabilized cells were blocked in 0.25% BSA PBS, incubated with primary antibody in blocking buffer overnight at 4° C. and subsequently incubated with secondary antibodies (diluted in blocking buffer 1:1000) for one hour at room temperature. 2-4×PBS washes were used in between all preceding steps. The coverslips were mounted on glass slides using Vectashield containing DAPI (Vector Laboratories) and imaged with 63× objective using epifluorescence microscopy.

HEK-293T = HEK-293T with C2orf28 depletion using RNAi; data not shown
[5] = system: cells containing or lacking C2orf28; details: C2orf28 deficient vs C2orf28-complemented cells; 75 μM fluorophore conjugated H^3-labeled Alendronate plus 60 μM cold, 60 hours
Experimental: The volume was made up to 1 ml with distilled water and the solution incubated for 2 hours at room temperature with mixing.

RAW 264.7 macrophages [6] = assay: RANKL-mediated induction of TRAP activity in RAW 264.7 macrophages; assay type: cell-based; details: TBONE knockdown RAW 264.7 macrophages; 50 ng/ml RANKL, 5 days
From the text: In order to determine if TBONE plays a role in directly regulating osteoclastogensis, TBONE was knockdown in macrophages to evaluate its potential effect on RANKL stimulated differentiation; by monitoring lineage specific surface marker expression of the calcitonin receptor (CALCR), a well-established indicator of osteoclast activity (J. Lam et al., (2000) J Clin Invest: 106, 1481; D. L. Lacey et al., (1998), Cell: 93, 165; and C. Minkin, (1982), Calcif Tissue Int: 34, 285; all of which are hereby incorporated by reference). Briefly, wild-type and GFP positive RAW 264.7 macrophages cells were transiently transfected with shRNA to knockdown GFP and Arp3 as described above. The cells were treated with 50 ng/ml RANKL for 5 days. […] Second, cells were analyzed for tartrate-resistant acid phosphatase (TRAP) activity.

[7] = TBONE deficient cells vs GFP control, 10 nM Alendronate
[8] = C2orf28 deficient cells (C2orf28_GT2)

Chain of HA tagged C2orf28 variant 2 (Q6UW56 1-284 isoform Q6UW56-3): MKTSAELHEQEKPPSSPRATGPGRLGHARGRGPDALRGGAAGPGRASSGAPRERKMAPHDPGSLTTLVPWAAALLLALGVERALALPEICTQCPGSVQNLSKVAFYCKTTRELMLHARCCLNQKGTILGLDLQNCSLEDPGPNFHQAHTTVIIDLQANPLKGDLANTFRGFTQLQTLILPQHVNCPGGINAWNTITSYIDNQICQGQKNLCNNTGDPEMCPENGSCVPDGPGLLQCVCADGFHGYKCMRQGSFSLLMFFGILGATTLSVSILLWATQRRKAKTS

Molecule: CNc1ccc2oc(C[C@H]3O[C@@]4(CC[C@H]3C)O[C@H]([C@H](C)C(=O)c3ccc[nH]3)[C@H](C)C[C@H]4C)nc2c1C(=O)O [A23187]
A23187-induced NFATc1 gene expression (NFATc1 mRNA): defective

Colocalization of Alendronate and C2orf28 co-staining [4]: high degree of colocalization
Molecule: NCCCC(O)(P(=O)(O)O)P(=O)(O)O [Alendronate]
NBP-stimulated ALPL (alkaline phosphatase activity) [1]: fail to demonstrate an increase in basal or NBP-stimulated gene expression
Cell viability (cellular ATP, ratio to untreated cells) (KBM7 cells; C2orf28_GT2 cells expressing C2orf28 variant 2 lacking the transmembrane domain, 0, 60 or 9004, 72 hours): resistant
Cell viability (cellular ATP, ratio to untreated cells) (KBM7 cells; C2orf28_GT2 cells expressing full-length C2orf28 variant 2, 0, 60 or 9004, 72 hours): sensitive
Cell viability (cellular ATP, ratio to untreated cells) (KBM7 cells; C2orf28 mutant cells with exogenous C2orf28 variant 2 or variant 3, 60 μM, 72 hours): as sensitive to Alendronate as wild-type KBM7 cells
Relative TBONE mRNA expression (MC3T3-e1 cells; GFP control cells, 10 nM Alendronate vs vehicle): increase in relative TBONE expression
NBP-stimulated gene expression of bone sialoprotein (BSP) (MC3T3-e1 cells; [7]): fail to demonstrate an increase in basal or NBP-stimulated gene expression
NBP-stimulated gene expression of osteocalcin (OC) (MC3T3-e1 cells; [7]): fail to demonstrate an increase in basal or NBP-stimulated gene expression
NBP-stimulated induction of TBONE mRNA (MC3T3-e1 cells; TBONE knockdown cells (TBONE—1 and TBONE—2), 10 nM Alendronate): fail to demonstrate a NBP-stimulated induction of TBONE
Vitamin D stimulated osteoclastogenesis (TRAP activity) (RAW 264.7 macrophages [2]; ST-2 cells treated with 100 nM Vitamin D and Alendronate, co-cultured with RAW 264.7 macrophages): reduced TRAP activity
RANKL mRNA induction by Vitamin D ([3]; wild-type ST-2 cells, 100 nM Vitamin D plus increasing concentration of Alendronate, vs control): impaired RANKL mRNA induction by Vitamin D, in a dose dependent fashion
Rapla prenylation (Rapla prenylation; [8]): no effect
Rapla prenylation (Rapla prenylation; cells containing C2orf28 (WT)): impaired both HDJ-2 and Rapla prenylation in a dose dependent manner
HDJ-2 prenylation (HDJ-2 prenylation; [8]): no effect
HDJ-2 prenylation (HDJ-2 prenylation; cells containing C2orf28 (WT)): impaired both HDJ-2 and Rapla prenylation in a dose dependent manner
Anti-proliferative effects (HEK-293T): strong resistance
Cellular Alendronate accumulation [5]: altered cellular Alendronate accumulation

Molecule: Vitamin D
Vitamin D stimulated osteoclastogenesis (TRAP activity) (RAW 264.7 macrophages [2]; TBONE knockdown ST-2 cells co-cultured with RAW 264.7 macrophages, 100 nM Vitamin D): largely blocked
RANKL mRNA induction by Vitamin D ([3]; TBONE knockdown ST-2 cells (TBONE—1 and TBONE—2) vs GFP control, 100 nM Vitamin D): impaired RANKL mRNA induction

B1: RANKL: regulatory molecule stimulating osteoclast differentiation and function (protein, UniProt O14788 140-317, looked up)
Tumor necrosis factor ligand …: IRAEKAMVDGSWLDLAKRSKLEAQPFAHLTINATDIPSGSHKVSLSSWYHDRGWAKISNMTFSNGKLIVNQDGFYYLYANICFRHHETSGDLATEYLQLMVYVTKTSIKIPSSHTLMKGGSTKYWSGNSEFHFYSINVGGFFKLRSGEEISIEVSNPSLLDPDQDATYFGAFKVRDID
RANKL-mediated TRAP activity (RAW 264.7 macrophages [6]): strongly impairs
